Source: ChEMBL document CHEMBL4513141, “CO-ADD screening of NIH (USA) - Clinical Collection” (2021)
Values after ≈ are worked out from the molar mass of the structure shown. Where a name gives a salt, the structure may show the parent alone.

Key:
[1] = test system: Acinetobacter baumannii; test: microbe, parasite or virus in culture; conditions: ATCC 19606, 18 h, ASSAY_TEST Inhibition of Bacterial Growth, detection method Absorption (OD600), MEDIA CAMHB, plate type 384well, NBS, CORNING #3640
Description: Antibacterial activity against Acinetobacter baumannii ATCC 19606 (CO-ADD:GN_034); MIC in CAMBH media using NBS plates, by OD600

[2] = test system: Pseudomonas aeruginosa; test: microbe, parasite or virus in culture; conditions: ATCC 27853, 18 h, ASSAY_TEST Inhibition of Bacterial Growth, detection method Absorption (OD600), MEDIA CAMHB, plate type 384well, NBS, CORNING #3640
Description: Antibacterial activity against Pseudomonas aeruginosa ATCC 27853 (CO-ADD:GN_042); MIC in CAMBH media using NBS plates, by OD(600)

[3] = test system: HEK293; test: cells; assay type: functional, Homo sapiens, ATCC CRL1573; conditions: Homo sapiens, ATCC CRL1573, HEK293; ASSAY_TEST Inhibition of Cell Viability; detection method Resazurin; Fluorescence (ex560/em590); MEDIA DMEM with 10% FBS; plate type 384well; TC; CORNING #3712; time 18 hr
[4] = test system: Cryptococcus neoformans
Description: Antifungal activity against Cryptococcus neoformans H99 ATCC 208821 (CO-ADD:FG_002); MIC in YNB media using NBS plates, by Resazurin OD(600-570)

[5] = test system: Klebsiella pneumoniae; test: microbe, parasite or virus in culture; conditions: ATCC 700603, 18 h, ASSAY_TEST Inhibition of Bacterial Growth, detection method Absorption (OD600), MEDIA CAMHB, plate type 384well, NBS, CORNING #3640
Description: Antibacterial activity against Klebsiella pneumoniae MDR ATCC 70063 (CO-ADD:GN_003); MIC in CAMBH media using NBS plates, by OD(600)

[6] = test system: Candida albicans; test: microbe, parasite or virus in culture; conditions: ATCC 90028, ASSAY_TEST Inhibition of Fungal Growth, detection method Absorption (OD530), plate type 384well, NBS, CORNING #3640
Description: Antifungal activity against Candida albicans ATCC 90028 (CO-ADD:FG_001); MIC in YNB media using NBS plates, by OD630

[7] = test system: Escherichia coli; test: microbe, parasite or virus in culture; conditions: ATCC 25922, 18 h, ASSAY_TEST Inhibition of Bacterial Growth, detection method Absorption (OD600), MEDIA CAMHB, plate type 384well, NBS, CORNING #3640
Description: Antibacterial activity against Escherichia coli ATCC 25922 (CO-ADD:GN_001); MIC in CAMBH media using NBS plates, by OD(600)

[8] = test system: Staphylococcus aureus; test: microbe, parasite or virus in culture; conditions: ATCC 43300, 18 h, ASSAY_TEST Inhibition of Bacterial Growth, detection method Absorption (OD600), MEDIA CAMHB, plate type 384well, NBS, CORNING #3640
Description: Antibacterial activity against Staphylococcus aureus MRSA ATCC 43300 (CO-ADD:GP_020); MIC in CAMBH media, using NBS plates, by OD(600)

SMILES	MIC [1] [µM]	MIC [2] [µM]	CC50 [3] [µM]	MIC [4] [µM]	MIC [5] [µM]	MIC [6] [µM]	MIC [7] [µM]	MIC [8] [µM]
CO[C@H]1/C=C/O[C@@]2(C)Oc3c(C)c(O)c4c(O)c(c(C=NN5CCN(C)CC5)c(O)c4c3C2=O)NC(=O)/C(C)=C\C=C\[C@H](C)[C@H](O)[C@@H](C)[C@@H](O)[C@@H](C)[C@H](OC(C)=O)[C@@H]1C	> 10	2.5 (≈ 2.06 µg/mL)	> 10	> 10	> 10	> 10	10 (≈ 8.23 µg/mL)	≤ 0.0781
CCOc1ccc2ccccc2c1C(=O)N[C@@H]1C(=O)N2[C@@H]1SC(C)(C)[C@@H]2C(=O)O [NAFCILLIN SODIUM]	> 10	> 10	> 10	> 10	> 10	> 10	> 10	1.25
COc1ccc2[nH]c([S+]([O-])Cc3ncc(C)c(OC)c3C)nc2c1 (centres undefined) [OMEPRAZOLE MAGNESIUM]	> 10	> 10	> 10	> 10	> 10	> 10	> 10	> 10
CC(C)n1c(/C=C/C(O)CC(O)CC(=O)O)c(-c2ccc(F)cc2)c2ccccc21 (centres undefined) [FLUVASTATIN]	> 10	> 10	> 10	> 10	> 10	5 (≈ 2.06 µg/mL)	> 10	> 10
O=c1[nH]cc(F)c(=O)[nH]1 [FLUOROURACIL]	> 10	> 10	> 10	5 (≈ 0.65 µg/mL)	> 10	> 10	> 10	2.5 (≈ 0.325 µg/mL)
CC(=O)[C@]1(O)Cc2c(O)c3c(c(O)c2[C@@H](O[C@H]2C[C@H](N)[C@H](O)[C@H](C)O2)C1)C(=O)c1ccccc1C3=O [IDARUBICIN HYDROCHLORIDE]	> 10	> 10	> 10	> 10	> 10	> 10	> 10	5
COc1cc(C)c(Cc2cnc(N)nc2N)cc1OC [ORMETOPRIM]	> 10	> 10	> 10	> 10	> 10	> 10	5 (≈ 1.37 µg/mL)	5 (≈ 1.37 µg/mL)
O=C(NC(CO)C(O)c1ccc([N+](=O)[O-])cc1)C(Cl)Cl (centres undefined)	> 10	> 10	> 10	> 10	> 10	> 10	10 (≈ 3.23 µg/mL)	> 10
CO[C@@]1(NC(=O)Cc2cccs2)C(=O)N2C(C(=O)O)=C(COC(N)=O)CS[C@@H]21 [CEFOXITIN SODIUM]	> 10	> 10	> 10	> 10	> 10	> 10	10	> 10
O=c1c2ccccc2[se]n1-c1ccccc1 [EBSELEN]	> 10	> 10	> 10	2.5 (≈ 0.685 µg/mL)	> 10	5 (≈ 1.37 µg/mL)	> 10	> 10
COc1cc(NC(C)CCCN)c2ncccc2c1 (centres undefined) [PRIMAQUINE PHOSPHATE]	> 10	> 10	> 10	> 10	> 10	> 10	> 10	> 10
CO[C@H]1C=CO[C@@]2(C)Oc3c(C)c(O)c4c(O)c(c5c(nc6cc(C)ccn65)c4c3C2=O)NC(=O)C(C)=CC=C[C@H](C)[C@H](O)[C@@H](C)[C@@H](O)[C@@H](C)[C@H](OC(C)=O)[C@@H]1C	10 (≈ 7.86 µg/mL)	2.5 (≈ 1.96 µg/mL)	> 10	> 10	> 10	> 10	10 (≈ 7.86 µg/mL)	≤ 0.0781
NC(=O)c1ncn(C2OC(CO)C(O)C2O)n1 (centres undefined)	> 10	> 10	> 10	> 10	> 10	> 10	> 10	> 10
CON=C(C(=O)N[C@@H]1C(=O)N2C(C(=O)O)=C(COC(N)=O)CS[C@H]12)c1ccco1	> 10	> 10	> 10	> 10	> 10	> 10	10 (≈ 4.24 µg/mL)	5 (≈ 2.12 µg/mL)
COc1cccc2c1C(=O)c1c(O)c3c(c(O)c1C2=O)C[C@@](O)(C(=O)CO)C[C@@H]3O[C@H]1C[C@H](N)[C@@H](O)[C@H](C)O1 [EPIRUBICIN HYDROCHLORIDE]	> 10	> 10	1.14	> 10	> 10	> 10	> 10	10
CCn1cc(C(=O)O)c(=O)c2cc(F)c(N3CCNCC3)cc21 [NORFLOXACIN]	5 (≈ 1.6 µg/mL)	> 10	> 10	> 10	10 (≈ 3.19 µg/mL)	> 10	0.625 (≈ 0.2 µg/mL)	5 (≈ 1.6 µg/mL)
Clc1ccc(CO/N=C(\Cn2ccnc2)c2ccc(Cl)cc2Cl)c(Cl)c1 [OXICONAZOLE NITRATE]	> 10	> 10	> 10	≤ 0.0781	> 10	≤ 0.0781	> 10	> 10
CN(C)c1ccc(O)c2c1C[C@H]1C[C@H]3[C@H](N(C)C)C(O)=C(C(N)=O)C(=O)[C@@]3(O)C(O)=C1C2=O [MINOCYCLINE HYDROCHLORIDE]	> 10	0.312	0.0983	> 10	> 10	> 10	2.5	0.312
CC(=O)N1CCN(c2ccc(OCC3COC(Cn4ccnc4)(c4ccc(Cl)cc4Cl)O3)cc2)CC1 (centres undefined) [KETOCONAZOLE]	> 10	> 10	> 10	2.5 (≈ 1.33 µg/mL)	> 10	0.156 (≈ 0.0831 µg/mL)	> 10	> 10
CCCCCCNC(=O)n1cc(F)c(=O)[nH]c1=O [CARMOFUR]	> 10	> 10	> 10	5 (≈ 1.29 µg/mL)	> 10	> 10	> 10	2.5 (≈ 0.643 µg/mL)
C=CC[C@@H]1C=C(C)C[C@H](C)C[C@H](OC)[C@H]2O[C@@](O)(C(=O)C(=O)N3CCCC[C@H]3C(=O)O[C@H](/C(C)=C/[C@@H]3CC[C@@H](O)[C@H](OC)C3)[C@H](C)[C@@H](O)CC1=O)[C@H](C)C[C@@H]2OC	> 10	> 10	> 10	≤ 0.0781	> 10	> 10	> 10	> 10
CN(C)C1C(=O)C(C(N)=O)=C(O)C2(O)C(=O)C3=C(O)c4c(O)ccc(Cl)c4C(O)C3CC12 (centres undefined)	> 10	2.5 (≈ 1.16 µg/mL)	> 10	> 10	> 10	> 10	5 (≈ 2.32 µg/mL)	1.25 (≈ 0.581 µg/mL)
Cc1nnc(SCC2=C(C(=O)O)N3C(=O)C(NC(=O)Cn4cnnn4)C3SC2)s1 (centres undefined)	> 10	> 10	> 10	> 10	> 10	> 10	> 10	> 10
COC1=C(OC)C(=O)C(CCCCCCCCCCO)=C(C)C1=O [IDEBENONE]	> 10	> 10	> 10	> 10	> 10	> 10	> 10	> 10
C[C@H]1O[C@H](O[C@H]2[C@H](O)[C@@H](O)[C@@H](O[C@H]3[C@H](O)[C@@H](O)C(O)O[C@@H]3CO)O[C@@H]2CO)[C@H](O)[C@@H](O)[C@@H]1N[C@H]1C=C(CO)[C@@H](O)[C@H](O)[C@H]1O (some centres undefined) [ACARBOSE]	> 10	> 10	> 10	> 10	> 10	> 10	> 10	> 10
COC(=O)Nc1nc2cc(C(=O)c3ccc(F)cc3)ccc2[nH]1 [FLUBENDAZOLE]	> 10	> 10	7.02	> 10	> 10	> 10	> 10	> 10
CCOC(=O)C1=C(C)NC(C)=C(C(=O)OCC)C1c1ccccc1/C=C/C(=O)OC(C)(C)C [LACIDIPINE]	> 10	> 10	> 10	> 10	> 10	> 10	> 10	> 10
CN(CCCN1c2ccccc2CCc2ccccc21)CC(=O)c1ccc(Cl)cc1 [LOFEPRAMINE]	> 10	> 10	> 10	> 10	> 10	> 10	> 10	> 10
